Test results from patent US20070104644A1, “Inhibitor imaging agents” (priority 2003, published 2007).

Columns and labels:
[1] = system: ApoE −/− mice, carotid artery; experiment: Biodistribution in ApoE ligation model of atherosclerosis (ligated and sham); type: in vivo
Excerpt: ApoE −/− mice are transgenic knock-out mice, which lack the ApoE gene, and are therefore unable to regulate their plasma cholesterol levels. As a consequence ApoE mice develop atherosclerotic lesions, a process which is accelerated with feeding of high fat diet. Further acceleration of lesion development can be achieved by ligating the carotid artery, resulting in advanced lesion formation within 4 weeks of surgery and high fat diet feeding.
Two controls have been used for these experiments: (1) ApoE sham animals in which the mice undergo the same surgical intervention but the sture is only passed beneath the carotid and then removed and, (2) C57BL/6 ligtaed animals which undergo the same surgical ligation and high fat feeding as the ApoE ligated mice. Literature reports have stated that these animals do have some level of tissue remodelling, but with lower active MMP levels [Ivan et al, Circulation, 105, 2686-2691 (2002)].

[2] = system: Lewis lung carcinoma (LLC) tumour; experiment: Biodistribution in LLC tumour model in vivo; parameters: species or system C57BL/6 mice
Method: 1×10^6 Lewis lung carcinoma (LLC) cells are injected subcutaneously into right inner thigh of C57BL/6 mice. Tumours were allowed to grow for 15 days prior to biodistribution being carried out.
Biodistribution studies were performed in the LLC tumour model.
Biodistribution was performed in the LLC tumour model of Example 23 with Compounds 46B and 48B.

[3] = ApoE Ligated, 5 min post injection
[4] = ApoE Ligated, 60 min post injection
[5] = ApoE Sham, 60 min post injection

Row | SMILES | % ID Urinary (urinary excretion), mean ([2]; 5 min post injection) [% ID] | % ID/g Tumour, mean ([2]; 5 min post injection) [% ID/g] | Tumour/Blood, mean ([2]; 5 min post injection) | Tumour/Heart, mean ([2]; 5 min post injection) | Tumour/Lung, mean ([2]; 5 min post injection) | Tumour/Muscle, mean ([2]; 5 min post injection) | % ID Urinary (urinary excretion), mean ([2]; 30 min post injection) [% ID] | % ID/g Tumour, mean ([2]; 30 min post injection) [% ID/g] | Tumour/Blood, mean ([2]; 30 min post injection) | Tumour/Heart, mean ([2]; 30 min post injection) | Tumour/Lung, mean ([2]; 30 min post injection) | Tumour/Muscle, mean ([2]; 30 min post injection) | % ID Urinary (urinary excretion), mean ([2]; 60 min post injection) [% ID] | % ID/g Tumour, mean ([2]; 60 min post injection) [% ID/g] | Tumour/Blood, mean ([2]; 60 min post injection) | Tumour/Heart, mean ([2]; 60 min post injection) | Tumour/Lung, mean ([2]; 60 min post injection) | Tumour/Muscle, mean ([2]; 60 min post injection) | % ID Urinary (urinary excretion), mean ([2]; 120 min post injection) [% ID] | % ID/g Tumour, mean ([2]; 120 min post injection) [% ID/g] | other results
1 | NC(=O)[C@H](CCCCNC(=O)CON=Cc1ccc([18F])cc1)NC(=O)CCOCCOCCOCCOCCOCCOCCOCCOCCOCCOCCOCCNC(=O)CCOCCOCCOCCOCCOCCOCCOCCOCCOCCOCCOCCNC(=O)CCN(C1(C(=O)NO)CCCC1)S(=O)(=O)c1ccc(Oc2ccc(F)cc2)cc1 [Compound 48B] | 0.24 | 2.53 | 0.11 | 0.40 | 0.26 | 1.55 | 15.29 | 2.33 | 0.24 | 0.84 | 0.47 | 2.92 | 56.89 | 1.81 | 0.51 | 1.69 | 0.95 | 4.40 | 59.33 | 1.62 | % ID/G Carotid, mean [1, 3]: 12.01 % ID/G; Carotid/Blood, mean [1, 3]: 0.40; Carotid/Heart, mean [1, 3]: 1.27; Carotid/Lung, mean [1, 3]: 0.75; % ID/G Carotid, mean [1, 4]: 10.34 % ID/G; Carotid/Blood, mean [1, 4]: 0.96; Carotid/Heart, mean [1, 4]: 2.71; Carotid/Lung, mean [1, 4]: 1.42; % ID/G Carotid, mean [1, 5]: 2.37 % ID/G; Carotid/Blood, mean [1, 5]: 0.2; Carotid/Heart, mean [1, 5]: 0.81; Carotid/Lung, mean [1, 5]: 0.25; Tumour/Blood, mean ([2]; 120 min post injection): 0.41; Tumour/Heart, mean ([2]; 120 min post injection): 1.52; Tumour/Lung, mean ([2]; 120 min post injection): 0.77; Tumour/Muscle, mean ([2]; 120 min post injection): 3.55
2 | NC(=O)[C@H](Cc1ccc(O)c([123I])c1)NC(=O)[C@H](CCC(=O)O)NC(=O)[C@H](CCC(=O)O)NC(=O)[C@H](CCC(=O)O)NC(=O)[C@H](CCC(=O)O)NC(=O)[C@H](CCC(=O)O)NC(=O)CCN(C1(C(=O)NO)CCCC1)S(=O)(=O)c1ccc(Oc2ccc(F)cc2)cc1 [Compound 21A] | 5.62 | 1.64 | 0.13 | 0.30 | 0.28 | 0.92 | 26.73 | 2.20 | 0.33 | 0.83 | 0.65 | 1.72 | 39.99 | 1.97 | 0.40 | 1.14 | 0.66 | 2.30 | 52.08 | 1.60 | Tumour/Blood, mean ([2]; 120 min post injection): 0.37; Tumour/Heart, mean ([2]; 120 min post injection): 0.91; Tumour/Lung, mean ([2]; 120 min post injection): 0.61; Tumour/Muscle, mean ([2]; 120 min post injection): 2.44
3 | NC(=O)[C@H](Cc1ccc(O)c([123I])c1)NC(=O)CCOCCOCCOCCOCCOCCOCCOCCOCCOCCOCCOCCNC(=O)CCN(C1(C(=O)NO)CCCC1)S(=O)(=O)c1ccc(Oc2ccc(F)cc2)cc1 [Compound 44A] | 3.94 | 1.14 | 0.41 | 0.86 | 0.49 | 1.91 | 5.85 | 0.5 | 0.38 | 0.870 | 0.54 | 1.57 | 6.36 | 0.66 | 0.42 | 0.940 | 0.69 | 2.3 | 9.42 | 0.53 | Tumour/Blood, mean ([2]; 120 min post injection): 0.43; Tumour/Heart, mean ([2]; 120 min post injection): 1.060; Tumour/Lung, mean ([2]; 120 min post injection): 0.72; Tumour/Muscle, mean ([2]; 120 min post injection): 2.8
4 | NC(=O)[C@H](Cc1ccc(O)c([123I])c1)NC(=O)COCC(=O)NCCOCCOCCOCCNC(=O)CCN(C1(C(=O)NO)CCCC1)S(=O)(=O)c1ccc(Oc2ccc(F)cc2)cc1 [Compound 20A] |  |  |  |  |  |  |  |  |  |  |  |  |  |  |  |  |  |  |  |  | Decrease in HBS (hepatobiliary) excretion compared to Compound 24A [2]: 10%; Increase in urinary excretion compared to Compound 24A [2]: 10%; Tumour retention compared to Compound 24A [2]: slightly increased; Uptake into the tumour compared to Compound 24A [2]: slightly lower
5 | NCCCC[C@H](NC(=O)CCN(C1(C(=O)NO)CCCC1)S(=O)(=O)c1ccc(Oc2ccc(F)cc2)cc1)C(=O)N[C@@H](CCCCN)C(=O)N[C@@H](CCCCN)C(=O)N[C@@H](CCCCN)C(=O)N[C@@H](CCCCN)C(=O)NCCOCCOCCOCCNC(=O)COCC(=O)N[C@@H](Cc1ccc(O)c([123I])c1)C(N)=O [Compound 42A] | 6.89 | 2.26 | 0.26 | 0.47 | 0.26 | 1.46 | 16.98 | 2.67 | 0.54 | 1.24 | 0.57 | 3.22 | 31.69 | 2.35 | 0.66 | 1.49 | 0.74 | 3.52 | 48.07 | 1.29 | Tumour/Blood, mean ([2]; 120 min post injection): 0.56; Tumour/Heart, mean ([2]; 120 min post injection): 1.49; Tumour/Lung, mean ([2]; 120 min post injection): 0.60; Tumour/Muscle, mean ([2]; 120 min post injection): 2.51
6 | NC(=O)[C@H](Cc1ccc(O)c([123I])c1)NC(=O)COCC(=O)NCCOCCOCCOCCNC(=O)[C@H](CCC(=O)O)NC(=O)[C@H](CCC(=O)O)NC(=O)[C@H](CCC(=O)O)NC(=O)[C@H](CCC(=O)O)NC(=O)[C@H](CCC(=O)O)NC(=O)CCN(C1(C(=O)NO)CCCC1)S(=O)(=O)c1ccc(Oc2ccc(F)cc2)cc1 [Compound 38A] | 6.37 | 2.08 | 0.13 | 0.29 | 0.33 | 1.22 | 40.17 | 2.14 | 0.30 | 0.90 | 0.73 | 2.19 | 68.53 | 1.06 | 0.45 | 1.25 | 0.83 | 2.27 | 78.75 | 0.42 | Tumour/Blood, mean ([2]; 120 min post injection): 0.52; Tumour/Heart, mean ([2]; 120 min post injection): 1.14; Tumour/Lung, mean ([2]; 120 min post injection): 0.64; Tumour/Muscle, mean ([2]; 120 min post injection): 1.82
